Key:
yeast α-glucosidase = test system: T1, yeast α-glucosidase; assay: p-nitrophenyl alpha-D-glucopyranoside hydrolysis, absorbance at […] nm; format: biochemical; settings: unreliable (a separate IC50 is printed for each sample concentration; this row is the 5 mg/mL one); 5 mM pNPG; 100 mM phosphate pH 6.8; 37 °C; 20 min; enzyme source contradictory (yeast or intestinal)
T1 construct: gene MAL12; commercial native enzyme, Sigma-Aldrich; assay text says yeast, reagent list says intestinal

[1] = target: T2, porcine pancreatic lipase (PL) enzyme type II (Sus scrofa, UniProt P00591); assay: p-nitrophenyl butyrate hydrolysis, absorbance at […] nm; format: biochemical; settings: unreliable (a separate IC50 is printed for each sample concentration; this row is the 5 mg/mL one); crude enzyme; pNPB 10 mM stock in acetonitrile; Tris-HCl pH 7.4; 37 °C; 5 min preincubation
T2 construct: gene PNLIP
T2 sequence (P00591 1-450): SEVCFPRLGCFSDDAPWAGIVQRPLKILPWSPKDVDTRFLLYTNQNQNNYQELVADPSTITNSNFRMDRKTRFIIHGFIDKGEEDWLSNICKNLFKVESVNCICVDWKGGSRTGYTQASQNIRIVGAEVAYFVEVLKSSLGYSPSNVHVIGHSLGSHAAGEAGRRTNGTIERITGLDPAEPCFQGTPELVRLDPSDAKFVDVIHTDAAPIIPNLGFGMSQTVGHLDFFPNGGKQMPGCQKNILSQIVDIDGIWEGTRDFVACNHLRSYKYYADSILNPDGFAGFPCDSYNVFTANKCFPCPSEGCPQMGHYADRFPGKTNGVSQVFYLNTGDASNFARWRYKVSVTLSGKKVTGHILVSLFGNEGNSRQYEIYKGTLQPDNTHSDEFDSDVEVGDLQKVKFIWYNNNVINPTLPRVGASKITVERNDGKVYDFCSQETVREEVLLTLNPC

| α-Glucosidase inhibitory Assay / Acarbose (yeast α-glucosidase) | Pancreatic Lipase (PL) Inhibition Assay / Orlistat [1] | Structure (SMILES) |
| --- | --- | --- |
| 0.16 mg/mL | – | C[C@H]1O[C@H](O[C@H]2[C@H](O)[C@@H](O)[C@@H](O[C@H]3[C@H](O)[C@@H](O)C(O)O[C@@H]3CO)O[C@@H]2CO)[C@H](O)[C@@H](O)[C@@H]1N[C@H]1C=C(CO)[C@@H](O)[C@H](O)[C@H]1O (some centres unmarked) [Acarbose] |
| – | 0.08 mg/mL | CCCCCCCCCCC[C@@H](C[C@@H]1OC(=O)[C@H]1CCCCCC)OC(=O)[C@H](CC(C)C)NC=O [Orlistat] |
